Measured values published in paper PMC6123365, “Pharmacokinetics of Nuciferine and N-Nornuciferine, Two Major Alkaloids From Nelumbo nucifera Leaves, in Rat Plasma and the Brain” (Frontiers in Pharmacology, 2018).
Like-named read-outs stand apart in the source and are kept apart here.

Key:
[1] = tested on: CYP2D6 isoenzyme; design: method as in Ye et al., 2014; conditions: competitive manner; ref Ye et al., 2014; cited from earlier work
[2] = rats, cited from earlier work
[3] = Plasma pharmacokinetics after single oral dose of lotus leaf alkaloid fraction; format: in vivo, SD rats; conditions: for bioavailability / Tmax / AUC(0-inf) / AUC(0-t) / Cmax / MRT inf / half-life: male; for bioavailability: SD, rat, from plasma AUC0-inf after oral (50 mg/kg) and i.v. (10 mg/kg) alkaloid fraction, read-out: F (absolute oral bioavailability); for Tmax / AUC(0-inf) / AUC(0-t) / Cmax / MRT inf / half-life / CL / Vd, λz: rat plasma, mean ± SD, n = 5; for Tmax: oral alkaloid fraction 50 mg/kg (NF 22.5, N-NF 10 mg/kg); for AUC(0-inf) / AUC(0-t) / Cmax / MRT inf / half-life / CL / Vd, λz: oral alkaloid fraction 50 mg/kg; for half-life: read-out: t1/2, λz (converted)
Procedure: (§1) The experimental animals (n = 10), male SD rats (200 ± 20 g), were supplied by the Institute of Laboratory Animal Sciences, Chinese Academy of Medical Sciences and Peking Union Medical College (Beijing, China). The animal experiments were approved by the Animal Ethics Committee at the Institute of Medicinal Plant Development, Chinese Academy of Medical Sciences. The day before the experiment, a light surgery was performed. A polyethylene catheter (0.50-mm ID, 1.00-mm OD, Portex Limited, Hythe, Kent, England) was cannulated into the right jugular vein under anesthesia with an intraperitoneal dose of chloral hydrate at 350 mg/kg. After surgery, the rats were placed individually in cages and allowed to recover for at least 12 h. The rats were fasted overnight with free access to water prior to drug administration.
(§2) Rats were randomly divided into two groups (five per group). Group 1 was treated with the alkaloid fraction dissolved in 0.03% HCl at a single oral dose of 50 mg/kg by gastric gavage. Group 2 was treated with the alkaloid fraction dissolved in normal saline solution containing 0.03% HCl at an i.v. dose of 10 mg/kg by rapid injection via the catheter. After i.v. administration, 0.2 mL of heparinized saline was injected into the catheter for cleaning.
(§3) Blood samples (0.2 mL) were collected from the catheter at multiple intervals (0.08, 0.17, 0.25, 0.50, 1, 2, 4, 6, 8, 12, and 16 h) after dosing. Samples were placed into a heparinized centrifuge tube and centrifuged at 3,000 × g and 4°C for 3 min for plasma separation. An aliquot (0.1 mL) of each separated plasma sample was immediately analyzed or stored at -20°C until assay. After each blood collection, 0.2 mL of normal saline containing 20 units of heparin was injected into the catheter to flush the catheter and prevent coagulation.
(§4) An aliquot of 100 μL of plasma was vortexed with 20 μL of IS (10 μg/mL) and then mixed with 1.5 mL of ethyl acetate for 10 min. Following centrifugation at 8,000 × g for 5 min, the organic phase was completely transferred to a glass tube and concentrated by a gentle nitrogen stream at 40°C. Subsequently, the residue was reconstituted in 150 μL of 80% methanol. Then, the solution was transferred into a small clean tube and centrifuged for 5 min at 16,000 × g. Finally, 10 μL of the supernatant was directly injected into the UPLC system for analysis.
(§5) Pharmacokinetic parameters were estimated by the drug concentration in the plasma or brain versus time profiles using WinNonlin software (Pharsight Corporation, Mountain View, CA, United States, Version 2.1). A non-compartmental model was employed to calculate the following parameters: initial plasma concentration (C0) for the i.v. dose, plasma or brain maximum concentration (Cmax), time of maximum concentration (Tmax), terminal elimination half-life (t1/2, λz), area under the plasma concentration versus time curve from time zero to the last sampling time (AUC0-t) and zero to infinity (AUC0-inf), total body clearance (CL), volume of distribution (Vd, λz), and MRT. Absolute bioavailability (F) was calculated based on the plasma AUC0-inf obtained after oral and i.v. administration at the equivalent dose. The analyte concentration (Cf) in the brain lateral ventricle at each time point was calculated from its probe recovery (Rdial) and determined concentration (Cd) in dialysate by the equation, Cf = Cd/Rdial.

[4] = Brain pharmacokinetics (unbound, lateral ventricle) by microdialysis after i.v. dose of alkaloid fraction; format: in vivo, rats; conditions: rat brain lateral ventricle, mean ± SD, n = 6; for AUC(0-inf) / AUC(0-t) / MRT inf / half-life / Tmax / Cmax: Sprague-Dawley, brain lateral ventricle microdialysate (unbound), iv; for half-life: read-out: t1/2, λz (converted); for Tmax / Cmax: unbound; for Tmax: i.v. alkaloid fraction 20 mg/kg (NF 9, N-NF 4 mg/kg)
Procedure: The microdialysis experiment was conducted as previously described ([Xiao et al., 2016]). Briefly, the rats were anesthetized with an intraperitoneal dose of chloral hydrate 350 mg/kg, and a guide cannula [MAB6 (9).14.IC; MAB, Stockholm, Sweden] was stereotaxically implanted into the lateral ventricle of the brain at the following coordinates relative to bregma: anterior -0.9 mm; lateral +1.5 mm; and lowered 3.1 mm ventral to the dura surface. The guide cannula was secured in place with skull screws and dental cement. The rats were placed in separate cages for at least 3 days to recover. Then, a light surgery was performed as described above.
The probe was perfused with aCSF containing 5 mM β-CD at a flow rate of 2 μL/min. The brain microdialysis system consisted of a syringe microinfusion pump (CMA 400, CMA Microdialysis, Solna, Sweden), equipment for freely moving animals (CMA 120, CMA Microdialysis, Solna, Sweden), a microdialysis probe (MAB6.14.4; 4 mm, MAB, Stockholm, Sweden) and an automatic sample collector (CMA 470, CMA Microdialysis, Solna, Sweden) set at 4°C. The rat was allowed to equilibrate for 1 h prior to the initiation of sample collection. After blank dialysate samples were collected, the animal received an i.v. dose of the alkaloid fraction at 20 mg/kg by injection through the jugular vein. An 8 min delay was incorporated into the sampling procedure to compensate for the dead volume between the active membrane and the sample collection outlet. The dialysates were collected every 20 min time interval for 2 h and then every 30 min time interval for 4 h. The collected samples were kept at 4°C and analyzed within 24 h.
as §5

[5] = design: method as in earlier work; conditions: ref National Center for Biotechnology Information. PubChem Compound Database (CID = 10146; CID = 12313579); cited from earlier work
[6] = Plasma pharmacokinetics after single i.v. dose of lotus leaf alkaloid fraction; format: in vivo, SD rats; conditions: male, iv, rat plasma, i.v. alkaloid fraction 10 mg/kg, mean ± SD, n = 5; for Vd: read-out: Vd, λz; for half-life: read-out: t1/2, λz (converted)
Procedure: as §1, §2, §3, §4, §5

[7] = i.v. alkaloid fraction 20 mg/kg

| Compound | inhibition of CYP2D6 isoenzyme activity [1] | bioavailability [3] [%] | Tmax [3] [h] | AUC(0-inf) [3] [ng·h/mL] | AUC(0-t) [3] [ng·h/mL] | Cmax [3] [ng/mL] | MRT inf [3] [h] | half-life [3] [min] | CL [3] [L/h/kg] | Vd, λz [3] [L/kg] | AUC(0-inf) [4, 7] [ng·h/mL] | AUC(0-t) [4, 7] [ng·h/mL] | MRT inf [4, 7] [h] | half-life [4, 7] [min] | Tmax [4] [h] | Cmax [4, 7] [ng/mL] | CL/F [4, 7] [L/h/kg] | LogP [5] | AUC(0-inf) [6] [ng·h/mL] | AUC(0-t) [6] [ng·h/mL] | also measured |
| --- | --- | --- | --- | --- | --- | --- | --- | --- | --- | --- | --- | --- | --- | --- | --- | --- | --- | --- | --- | --- | --- |
| COc1cc2c3c(c1OC)-c1ccccc1C[C@H]3N(C)CC2 [NF, nuciferine] | significantly inhibit | 58.1 | 0.9 ± 0.72 | 6200 ± 1330 | 6130 ± 1350 | 1710 ± 450 | 3.35 ± 0.8 | 149 ± 39.6 | 2.19 ± 0.45 | 7.87 ± 2.84 | 830 ± 130 | 780 ± 130 | 2.46 ± 0.35 | 74.4 ± 19.8 | 0.89 ± 0.17 | 320 ± 70 | 11.08 ± 1.80 | 3.4 | 2130 ± 400 | 2090 ± 380 | oral bioavailability ([2]; oral administration of pure NF, LC-MS/MS, ref Xie et al., 2010): 69.56%; oral bioavailability ([2]; pure NF, ref Gu et al., 2014): 3.9%; Vd, λz/F [4, 7]: 19.78 ± 5.79 L/kg; C0 [6]: 2580 ± 890 ng/mL; MRT inf [6]: 2.07 ± 0.74 h; clearance [6]: 35.8 mL/min/kg; Vd [6]: 9.48 ± 3.17 L/kg; half-life [6]: 125 ± 38.4 min |
| COc1cc2c3c(c1OC)-c1ccccc1CC3NCC2 (centres unmarked) [N-NF, N-nornuciferine] | significantly inhibit | 79.9 | 1.65 ± 0.78 | 3400 ± 700 | 3320 ± 670 | 570 ± 100 | 4.71 ± 0.72 | 176 ± 24 | 2.44 ± 0.56 | 10.34 ± 2.64 | 500 ± 60 | 460 ± 70 | 2.98 ± 0.49 | 83.4 ± 40.8 | 1.22 ± 0.27 | 160 ± 30 | 8.08 ± 1.00 | 3 | 850 ± 280 | 740 ± 200 | C0 [6]: 690 ± 560 ng/mL; MRT inf [6]: 4.94 ± 1.83 h; clearance [6]: 43.5 mL/min/kg; Vd [6]: 15.2 ± 2.17 L/kg; half-life [6]: 230 ± 76.2 min |
